In data set [1] the test system is two-spotted spider mite (Tetranychus urticae). The data set can be described thus: Tetranychus test (resistant). In kind it is in vivo. Particulars: 48 h, after 2 days, resistant Tetranychus urticae on bean plants, read-out: Degree of destruction in % after 2 days; for mortality at 0.01 %: active compound concentration 0.01 %; for mortality at 0.1 %: active compound concentration 0.1 %. As for the experimental part: Tetranychus test (resistant)
Solvent: 3 parts by weight of acetone
Emulsifier: 1 part by weight of alkylaryl polyglycol ether
To produce a suitable preparation of active compound, 1 part by weight of the active compound was mixed with the stated amount of solvent containing the stated amount of emulsifier and the concentrate was diluted with water to the desired concentration.
These bean plants were heavily infested with the two-spotted spider mite (Tetranychus urticae) in all stages of development.
After the specified periods of time, the effectiveness of the preparation of active compound was determined by counting the dead mites. The degree of destruction thus obtained was expressed as a percentage: 100% means that all the spider mites were killed, whereas 0% means that none of the spider mites were killed.
The active compounds, the concentrations of the active compounds, the evaluation times and the results can be seen from the following table: […]

The next data set is described as follows: Toxicity test/peroral. The conditions noted are these: in vivo, po; Albino rat, peroral, evaluation after 7 days. As for the experimental part:
Test animal: Albino rat (Rattus norvegicus)
To produce a suitable preparation of active compound, 3 parts by weight of active compound were mixed with 2.8 parts by weight of highly-dispersible silica and 4.2 parts by weight of talc. Suspensions which contained, in 1 ml of liquid, the amount of active compound to be applied per 100 g of animal weight, were prepared from the above active-compound concentrate, with a little added powdered vegetable gum, by grinding with water. Dosing was effected volumetrically after weighing the test animals. A steel knob-ended probe was used for oral administration. The evaluation was carried out in each case after the end of the above-mentioned time interval, calculated from the administration of the active compound.
The LD50 values (dose of active compound at which 50% of the treated animals were killed) were determined in the usual manner from the mortality figures of the doses, which were varied in geometrical progression.
The active compounds and LD50 values can be seen from the table which follows: […]

In a further data set the test system is Musca domestica. The data set can be described thus: LT100 test for Diptera. In kind it is in vivo. Particulars: time for 100% destruction. How it is done: Test insects: Musca domestica
2 parts by weight of active compound were dissoled in 1,000 parts by volume of solvent. The solution so obtained was diluted with further solvent to the desired lower concentrations.
2.5 ml of the solution of active compound were pipetted into a Petri dish. On the bottom of the Petri dish there was a filter paper with a diameter of about 9.5 cm. The Petri dish remained uncovered until the solvent had completely evaporated. The amount of active compound per m^2 of filter paper varied with the concentration of the solution of active compound. About 25 test insects were then placed in the Petri dish and it was covered with a glass lid.
The condition of the test insects was continuously observed. The time which was necessary for 100% destruction was determined.
The test insects, the active compounds, the concentrations of the active compounds and the times at which there was 100% destruction can be seen from the following table: […]

The next data set has as its system warm-blooded animals. The conditions noted are these: in words; known compounds; cited from earlier work.
Setting [2] is: active compound concentration of the solution 0.02 %.
The mark [3] stands for this setting: active compound concentration of the solution 0.2 %.

For orientation: LD50 means the dose at which mortality reaches 50%. Low values mean a more toxic substance, high ones a less toxic substance. For `CCCSP(=S)(OCC)Oc1ccc(Br)nn1` (stereo not drawn) [Compound 1, O-ethyl-S-n-propyl-O-[6-bromo-pyridazin(3)-yl]-thionothiolphosphoric acid ester], in data set [1], the mortality at 0.01 % worked out at 100% and the mortality at 0.1 % was 100%. In the data set “Toxicity test/peroral”, the LD50 at 168 h lay in the range of 100 to 250 mg/kg.
As to `CCCSP(=S)(OCC)Oc1ccc(C)nn1` (stereo not drawn) [Compound 2], the LD50 at 168 h in the data set “Toxicity test/peroral” was approximately 50 mg/kg.
Consider `CCCSP(=S)(OCC)Oc1ccc(Cl)nn1` (stereo not drawn) [Compound 3], for which the “LT100 in minutes (')” value in the data set on Musca domestica (setting [2]) was 165 min; with Musca domestica (setting [3]), 55 min. In addition, the median lethal dose (LD50) at 168 h in “Toxicity test/peroral” lay in the range of 100 to 250 mg/kg.
With `CCOP(=S)(OCC)Oc1ccc(Cl)nn1` [Compound A, O,O-diethyl-O-[6-chloro-pyridazin-(3)-yl]-thionophosphoric acid ester], the “toxicity to warm-blooded animals” value with warm-blooded animals was “high toxicity to warm-blooded animals”. The compound further displayed a 50% lethal dose (LD50) at 168 h in the data set “Toxicity test/peroral” of approximately 5 mg/kg.
As for `CCOP(=S)(OCC)Oc1ccc(C)nn1` [Compound B, O,O-diethyl-O-[6-methyl-pyridazin-(3)-yl]-thionophosphoric acid ester], the “toxicity to warm-blooded animals” value with warm-blooded animals is “high toxicity to warm-blooded animals”. Moreover, in data set [1], the mortality at 0.01 % amounted to 20% and the mortality at 0.1 % was found to be 100%. Also, the “LT100 in hours” value in the data set with Musca domestica (setting [2]) came to 8 h. For the same compound, the “LT100 in minutes (')” value with Musca domestica (setting [3]) was 135 min. Besides, the median lethal dose (LD50) at 168 h in “Toxicity test/peroral” lay in the range of 0.5 to 1 mg/kg.

These data come from patent US3950334A, “O-Alkyl-S-alkyl-O-[6-alkyl- or 6-halo-pyridazin-(3)-yl]-(thiono)thiol-phosphoric acid esters” (priority 1973, dated 1976).
